Measurements from patent publication US8173693B2, “Benzenesulfonamide derivatives and pharmaceutical composition thereof” (Purzer Pharmaceutical Co., Ltd., priority 2010, dated 2012).

What was measured:
[1] = system: lung carcinoma A549 cells; test: SRB assay; type: cell-based; conditions: Homo sapiens, 48 hr
Method: (§1) Human Bladder Cancer TSGH cells, Human hepatoblastoma HepG2 cells, Human colorectal adenocarcinoma HT-29 cells, human nasopharyngeal carcinoma KB cells, Human gastric adenocarcinoma AGS cells, Human breast carcinoma MCF-7 cells, lung carcinoma A549 cells, and Human prostate carcinoma PC-3 cells were used in the preliminary cytotoxicity assays of the benzenesulfonamide derivatives of the present invention, and the inhibition activity against the tumor cells was evaluated.
(§2) All cell lines were maintained in RPMI 1640 supplied with 10% fetal bovine serum into 96-well microtiter plates and maintained in a humidified chamber at 37° C. containing 5% CO2. After 24 hr, cell lines in partial wells were fixed in situ with 10% trichloroacetic acid (TCA) to represent a measurement at the time of drug addition (T0). Then, cell lines in other wells were incubated with the benzenesulfonamide derivatives of the present invention for an additional 48 hr, and fixed in situ with 10% TCA to represent a measurement at the time of stopping reaction (Tx). After rinsing the plates with PBS and air-drying, 0.4% sulforhodamine B solution (weight per volume in 1% acetic acid) was added to each well and the plates were incubated for 10 min at room temperature. Unbound sulforhodamine B was removed with 1% acetic acid and the plates were air-dried. Cells bound with sulforhodamine B was subsequently solubilized with 10 mM Tris base (Trizma; Sigma). Cell proliferation was determined by measuring the optical density at 515 nm using a Thermomax microplate reader (Molecular Devices, Sunnyvale, Calif.). The half-inhibition concention (GI50) of the benzenesulfonamide derivatives of the present invention was obtained from the detected optical density.

[2] = system: Human hepatoblastoma HepG2 cells; test: SRB assay; type: cell-based; conditions: 48 hr
Method: as §1, §2

[3] = system: Human colorectal adenocarcinoma HT-29 cells; test: SRB assay; type: cell-based; conditions: 48 hr
Method: as §1, §2

[4] = system: Human gastric adenocarcinoma AGS cells; test: SRB assay; type: cell-based; conditions: 48 hr
Method: as §1, §2

[5] = system: Human prostate carcinoma PC-3 cells; test: SRB assay; type: cell-based; conditions: Homo sapiens; for GI50: PC-3, 48 h; for IC50: PC-3, 48 hr
Method: as §1, §2

[6] = system: Human breast carcinoma MCF-7 cells; test: SRB assay; type: cell-based; conditions: MCF7, 48 hr
Method: as §1, §2

[7] = system: lung carcinoma A549 cells; test: SRB assay; type: cell-based; conditions: Homo sapiens, 48 hr; remark: listed apart in the source
[8] = system: Human colorectal adenocarcinoma HT-29 cells; test: SRB assay; type: cell-based; conditions: 48 hr; remark: listed apart in the source
[9] = system: Human gastric adenocarcinoma AGS cells; test: SRB assay; type: cell-based; conditions: 48 hr; remark: listed apart in the source
[10] = system: Human breast carcinoma MCF-7 cells; test: SRB assay; type: cell-based; conditions: MCF7, 48 hr; remark: listed apart in the source
[11] = system: Human hepatoblastoma HepG2 cells; test: SRB assay; type: cell-based; conditions: 48 hr; remark: listed apart in the source

Row | Structure (SMILES) | GI50 [1] [µM] | GI50 [2] [µM] | GI50 [3] [µM] | GI50 [4] [µM] | GI50 [5] [µM] | IC50 [5] [µM] | GI50 [6] [µM] | IC50 [7] [µM] | IC50 [8] [µM] | melting point [°C] | IC50 [9] [µM] | IC50 [10] [µM] | IC50 [11] [µM]
1 | O=S(=O)(Nc1cccc2c1[nH]c1ccccc12)c1cccc(C(F)(F)F)c1 [Compound 21b, N-(9H-Carbazol-1-yl)-3-trifluoromethylbenzenesulfonamide] | > 10 | > 10 | > 10 | > 10 | > 10 | > 10 | > 10 | > 10 | > 10 | 188 to 190 | > 10 | > 10 | > 10
2 | Cc1ccc(C)c2c1[nH]c1c(NS(=O)(=O)c3cccc(C(F)(F)F)c3)cccc12 [Compound 6j, N-(5,8-Dimethyl-9H-carbazol-1-yl)-3-trifluoromethylbenzenesulfonamide] | > 10 | > 10 | > 10 | > 10 | > 10 | > 10 | > 10 | > 10 | > 10 | 217 to 218 | > 10 | > 10 | > 10
3 | COc1ccc(S(=O)(=O)N(C)c2cccc3c2[nH]c2c(C)ccc(C)c23)cc1 [Compound 15c, N-(5,8-Dimethyl-9H-carbazol-1-yl)-N-methyl-4-methoxybenzenesulfonamide] | > 10 | > 10 | > 10 | > 10 | > 10 | > 10 | > 10 | > 10 | > 10 | 88 to 89 | > 10 | > 10 | > 10
4 | Cc1ccc(C)c2c1[nH]c1c(NS(=O)(=O)c3ccc(Cl)s3)cccc12 [Compound 6k, 5-Chloro-thiophene-2-sulfonic acid (5,8-dimethyl-9H-carbazol-1-yl)amide] | 6.5 | 1.3 | 2.1 | 6.7 | 4.6 | > 10 | > 10 | 10 | 5.6 | 232 to 234 | > 10 | > 10 | 2.7

Now those with a lower GI50 [1], led by results:

Row | GI50 [1] [µM] | GI50 [2] [µM] | GI50 [3] [µM] | GI50 [4] [µM] | GI50 [5] [µM] | IC50 [5] [µM] | GI50 [6] [µM] | IC50 [7] [µM] | IC50 [8] [µM] | melting point [°C] | IC50 [9] [µM] | IC50 [10] [µM] | IC50 [11] [µM] | Structure (SMILES)
5 | 5.9 | 0.8 | 0.3 | 0.6 | 3.5 | 8.6 | 6.1 | 10 | 0.8 | 60 to 62 | > 10 | > 10 | 1.9 | CCCN(c1cccc2c1[nH]c1c(C)ccc(C)c12)S(=O)(=O)c1ccc(OC)cc1 [Compound 17c, N-(5,8-Dimethyl-9H-carbazol-1-yl)-N-propyl-4-methoxybenzenesulfonamide]
6 | 0.9 | 0.04 | 0.03 | 0.01 | 0.2 | > 10 | 0.07 | 1.7 | 0.07 | 204 to 206 | 0.07 | 4.4 | 0.08 | COc1ccc(S(=O)(=O)Nc2cccc3c2[nH]c2ccccc23)cc1 [Compound 21a, N-(9H-Carbazol-1-yl)-4-methoxybenzenesulfonamide]
7 | 0.4 | 0.04 | 0.05 | 0.4 | 0.06 | 0.3 | 0.4 | > 10 | 0.3 | 151 to 152 | 1 | 0.8 | 0.08 | CCN(c1cccc2c1[nH]c1c(C)ccc(C)c12)S(=O)(=O)c1ccc(OC)cc1 [Compound 16c, N-(5,8-Dimethyl-9H-carbazol-1-yl)-N-ethyl-4-methoxybenzenesulfonamide]
